Measurements taken from paper PMC5970127, “In vivo evaluation of two tissue transglutaminase PET tracers in an orthotopic tumour xenograft model” (EJNMMI Research, 2018).
Values joined by “and” are separate entries in the source; they are usually repeats but may differ in a detail not shown here. Equal entries are not always repeated. Where two headings read alike, the source gives them in different places.

Columns and labels:
TG2 [1] = test system: TG2; design: method as in PMID 24152195; details: cited from earlier work
TG2 [2] = molecular target: TG2; design: method as in PMID 17149878; details: cited from earlier work
[3] = test system: MDA-MB-231 tumour sections; design: method as in PMID 27067043, PMID 27837727; details: cited from earlier work
[4] = cited from earlier work; for Intact (%) / Non-polar (%) / Polar (%): rat plasma
[5] = Plasma metabolite analysis after i.v. administration in SCID mice; type: in vivo; details: mouse plasma
Protocol: Healthy female SCID mice (20–25 g, Harlan, Horst, The Netherlands) were injected in the tail vein with [^11C]1 or [^18F]2 (20 MBq) under isoflurane anaesthesia (2% in O2 at 1 L · min^−1). Mice were sacrificed at 15 and 45 min post injection (n = 3 for each time-point) by cervical dislocation. Blood (~ 0.5–1 mL) was withdrawn by heart puncture, collected in a heparin-coated tube and centrifuged at 5000 RPM to separate plasma from blood cells. Solid phase extraction (SPE) cartridges (tC18, Waters, Milford, MA, USA) were preconditioned by washing with methanol (MeOH, 6 mL) and H2O (two times 6 mL). Plasma (~ 0.2 mL) was mixed with 0.15 M HCl (0.2 mL) and loaded on the tC18 cartridge. The polar fraction was obtained by elution of the cartridge with H2O (3 mL), the non-polar fraction by subsequent elution with MeOH (1.5 mL) and H2O (0.5 mL). Both fractions were counted for radioactivity in a gamma counter. The percentage of intact tracer in the non-polar fraction was determined by online and offline HPLC analysis (Gemini C18 column (5 μm, 10 mm × 250 mm, Phenomenex, Torrance, CA, USA) with eluent MeCN (A) and 0.1% TFA acid in H2O (B) as eluent according to the following schemes; For [^11C]1: 0 min, 70% B at 0.25 mL · min^−1; 0.5 min, 70% B at 3.5 mL · min^−1; 9.0 min, 10% B at 3.5 mL · min^−1; 12.0 min, 10% B at 3.5 mL · min^−1; 12.5 min, 70% B at 3.5 mL · min^−1; 14.5 min, 70% B at 3.5 mL · min^−1 and 15 min, 70% B at 0.25 mL · min^−1 or for [^18F]2: 0 min, 80% B at 0.25 mL · min^−1; 0.5 min, 80% B at 3 mL · min^−1; 6.0 min, 30% B at 3 mL · min^−1; 12.0 min, 30% B at 3 mL · min^−1; 12.5 min, 80% B at 3.0 mL · min^−1; 14.5 min, 80% B at 3.0 mL · min^−1; 15.0 min, 80% B at 0.25 mL · min^−1 (Rt = 11.5 min). Offline HPLC analysis was performed when the online HPLC analysis yielded a low signal to noise ratio. For offline analysis, HPLC fractions (30 s per fraction) were collected and counted for radioactivity (WIZARD 2480 Compugamma, PerkinElmer, Waltham, MA, USA). The counting results were plotted to generate the corresponding HPLC chromatograms. Data were expressed as percentage of intact tracer, polar metabolites, and non-polar metabolites ± standard deviation.
To healthy SCID mice (n = 2) 10 MBq [^18F]2 diluted with 50 μg (2.5 mg · kg^−1) of unlabelled 2 was administered, corresponding to a molar activity of 0.14 GBq · μmol^−1. At 30 min post injection, animals were sacrificed under isoflurane anaesthesia (2% in O2 at 1 L · min^−1) by cervical dislocation. Blood (~ 1 mL) was collected by heart puncture. Blood plasma was separated using a SPE procedure as described in the “Metabolite analysis” section (vide supra). The non-polar fraction was analysed by HPLC and Liquid chromatography–tandem mass spectrometry (LC-MS/MS) in multiple reaction monitoring (MRM) mode. […]

MDA-MB-231 tumour = test: Dynamic PET imaging in orthotopic MDA-MB-231 tumour xenograft model; type: in vivo, SCID mice
Protocol: Severe combined immunodeficient (SCID) female mice (6–8 weeks, 20 to 25 g, Charles River, Wilmington, MA, USA) were housed in sterile cages under standard conditions (24 °C, 60% relative humidity, 12-h light/dark cycles) and provided with water and food ad libitum. MDA-MB-231 cells (1 × 10^6) were injected orthotopically in the fat pad of the second thoracic mammary glands (bilateral). Tumour dimensions were measured using a Vernier calliper, and tumour volume was calculated using the formula (x^2 y)/2 (x and y being the width and length, respectively) for an ellipsoid. At 8 weeks after MDA-MB-231 cell injection, tumours reached the target size of 200 mm^3. This study was performed according to national regulations and was approved by the Animal Experimentation Ethics Committee of the VU University Medical Center.
Dynamic PET imaging was performed using dedicated small animal NanoPET/CT and NanoPET/MR scanners (Mediso Ltd., Hungary, Budapest) with identical PET components. Mice (n = 4 per group) were anaesthetized with 4 and 2% isoflurane in 1 L · min^−1 oxygen for induction and maintenance, respectively. Mice were positioned on the scanner bed, and the respiratory rate was monitored for the duration of the scan, adjusting anaesthesia when required. A dynamic PET scan was acquired immediately after intravenous (i.v.) administration (tail vein) of 5 MBq [^11C]1 or [^18F]2. For blocking experiments, mice were injected subcutaneously with ERW1041E (50 mg · kg^−1) dissolved in 20% dimethylsulfoxide in 0.9% saline, 30 min prior to the tracer injection. An additional blocking experiment was performed by co-administration of compound 2 (50 μg, 75 nmol) and [^18F]2, which corresponded with a molar activity of 0.07 GBq · μmol^−1. PET scans were acquired in list mode and rebinned into the following frame sequence: 4 × 5, 4 × 10, 2 × 30, 3 × 60, 2 × 300, 1 × 600, 1 × 900 and 1 × 1200 s. In addition, a static [^18F]2-fluoro-2-deoxy-D-glucose ([^18F]FDG) scan was acquired for 30 min immediately after [^18F]FDG administration (10 MBq, tail vein). At least a 24-h time interval between [^18F]FDG scans and [^11C]1 or [^18F]2 scans was maintained. Reconstruction was performed with a fully 3-dimensional (3D) reconstruction algorithm using four iterations and six subsets, resulting in an isotropic 0.4-mm voxel dimension. Images were analysed using the freely available AMIDE-software version 1.0.4 (retrieved from https://sourceforge.net/projects/amide/files/amide/1.0.4). Regions of interest (ROIs) were drawn around the tumour tissue and leg muscle. Results are expressed as percentage injected dose per gram (%ID/g). Error bars indicate standard deviation. After PET scanning experiments, animals were sacrificed by cervical dislocation, tumours were isolated, and stored at − 80 °C until further use.

TG2 [6] = test system: TG2; design: method as in PMID 27067043, PMID 27837727; details: TG2 inhibition; cited from earlier work
activated FXIII = test system: activated FXIII; design: method as in PMID 27067043, PMID 27837727; details: cited from earlier work
[7] = 15 min after i.v., % of total blood plasma activity ± SD
[8] = animals sacrificed at 60 min post injection (listed under 45 min)

## O=C(NC[C@@H]1CC(Br)=NO1)[C@@H]1CCCN1C(=O)OCc1cnc2ccccc2c1 [ERW1041E, Quinolin-3-ylmethyl (S)-2-((((S)-3-bromo-4,5-dihydroisoxazol-5-yl)methyl)carbamoyl)pyrrolidine-1-carboxylate]
TG2 [1]; 50 mg/kg
  Inhibition of TG2 activity in mouse model of pulmonary hypertension: inhibition of TG2 activity to background levels
TG2 [1]; 30 min after administration
  Reduction of TG2 activity in pulmonary hypertension model: factor of four
TG2 [1]
  Time of maximum TG2 inhibitory effect after administration: 30 min
TG2 [2]
  Ki: 11 µM

## C=C[11C](=O)NCCCC[C@H](NC(=O)Cc1ccccc1)C(=O)N1CCN(c2cccc(C)n2)CC1 [[^11C]1, (S)-N-(6-(4-(6-methylpyridin-2-yl)piperazin-1-yl)-6-oxo-5-(2-phenylacetamido)hexyl)[^11C]acrylamide]
[3]
  Binding to MDA-MB-231 tumour sections (in vitro autoradiography): specific and selective binding
[4]; 15 min after i.v.
  Intact (%): 65 ± 7%
  Non-polar (%): 13 ± 4%
  Polar (%): 21 ± 3%
[4]; 45 min after i.v.
  Intact (%): 29 ± 11%
  Non-polar (%): 6 ± 3%
  Polar (%): 65 ± 12%
[5]; [7]
  Intact (%): 56 ± 14%
[5]; 45 min after i.v.
  Intact (%): 24% and 24 ± 1%
MDA-MB-231 tumour; ERW1041E 50 mg/kg s.c. 30 min prior to tracer
  Effect of ERW1041E pretreatment on tumour activity: significant increase in tumour activity
MDA-MB-231 tumour; baseline
  Time of peak tumour uptake after injection: 5 to 10 min
MDA-MB-231 tumour; baseline, 40–60 min p.i., 5 MBq i.v.
  Tumour uptake: approx. 0.5 %ID/g
TG2 [6]
  IC50: 53 nM
Activated FXIII
  Affinity for activated FXIII: no affinity

## COC(=O)[C@H](CC(C)C)NC(=O)[C@@H]1CCCN1C(=O)[C@@H](NC(=O)[C@H](CCC(=O)C=[N+]=[N-])NC(=O)CO/N=C/c1ccc([18F])cc1)C(C)C [[^18F]2, (S)-methyl 2-((S)-1-((7S,10S,E)-7-(4-diazo-3-oxobutyl)-1-(4-[^18F]fluorophenyl)-10-isopropyl-5,8-dioxo-3-oxa-2,6,9-triazaundec-1-en-11-oyl)pyrrolidine-2-carboxamido)-4-methylpentanoate]
[3]
  Binding to MDA-MB-231 tumour sections (in vitro autoradiography): specific and selective binding
[4]; 15 min post injection
  Metabolism in vivo: completely metabolised
[4]; 15 min after i.v.
  Intact (%): 1 ± 1%
  Non-polar (%): 98 ± 1%
  Polar (%): 2 ± 0%
[4]; [8]
  Intact (%): 0 ± 0 %
  Non-polar (%): 92 ± 3 %
  Polar (%): 8 ± 3 %
[5]; [7]
  Intact (%): 20 ± 1%
[5]; 45 min after i.v.
  Intact (%): 3 ± 2%
MDA-MB-231 tumour; ERW1041E 50 mg/kg s.c. 30 min prior to tracer, 40–60 min, p = 0.06 vs baseline
  Tumour activity after pretreatment with ERW1041E: 1.4 %ID/g
MDA-MB-231 tumour; baseline, 40–60 min time-frame
  Background (muscle, right femur) activity: 0.8 %ID/g
MDA-MB-231 tumour; self-blocking, 2 (50 μg, 75 nmol) co-administered, 40–60 min, p = 0.007
  Tumour activity with co-administered unlabelled 2: approximately 1.0 %ID/g
TG2 [6]
  IC50: 104 nM
Activated FXIII
  Affinity for activated FXIII: no affinity

## CC(C)C[C@H](NC(=O)[C@@H]1CCCN1C(=O)[C@@H](NC(=O)[C@H](CCC(=O)C=[N+]=[N-])NC(=O)CO/N=C/c1ccc([18F])cc1)C(C)C)C(=O)O [[^18F]M1]
TG2 [6]
  IC50: 45 nM
